Data from patent US20070224194A1, “Methods for Inhibiting Angiogenesis and/or Lymphangiogenesis” (LUDWIG INSTITUTE FOR CANCER RESEARCH, priority 2004, published 2007).
The star is where a group is joined. Decanoyl = CCCCCCCCCC(=O)*; CH2Cl = ClC*

System: proteolytic processing of VEGF-DΔC
Assay: Processing of VEGF-DΔC by 293EBNA cells (cleavage of N-terminal propeptide from VHD)
Type: cell-based, human
Conditions: for band representing mature VHD from VEGF-DΔC: 1, 10, 50, 100 μM, 18 hours
Text: An expression plasmid encoding a truncated derivative of human VEGF-D consisting of the N-terminal propeptide and the VHD tagged at the carboxyl terminus with the FLAG epitope (referred to as VEGF-DΔC) (FIG. 3, top panel) has been previously described (Stacker et al, J. Biol. Chem. 274 32127-32136, 1999). The VEGF-DΔC protein construct facilitates study of cleavage of the N-terminal propeptide from the VHD. The conditioned media of 293EBNA cells stably transfected with the VEGF-DΔC expression plasmid contain a mixture of VEGF-D proteins, including unprocessed VEGF-DΔC, and the proteolytically processed VHD. A second cell line was generated by stable transfection of 293EBNA cells with an expression construct encoding VEGF-DΔN, a truncated derivative of human VEGF-D consisting of the VHD tagged at the amino terminus with the FLAG epitope and C-terminal propeptide (FIG. 3, top panel). This protein construct facilitates study of cleavage of the C-terminal propeptide from the VHD. The conditioned media of 293EBNA cells expressing VEGF-DΔN contain a mixture of VEGF-D proteins, consisting of unprocessed VEGF-DΔN, and the proteolytically processed VHD. The VEGF-DΔN expression plasmid was constructed by replacing the 2-kb EcoRV fragment of the pAPEX-3 construct for full-length VEGF-D with the 2-kb EcoRV fragment of the pAPEX-3 construct for VEGF-DΔNΔC-FLAG (Stacker et al, J. Biol. Chem. 274 32127-32136, 1999).
The 293EBNA cell lines expressing VEGF-D-FULL-FLAG, VEGF-DΔC or VEGF-DΔN were seeded into 24-well plates (8×10^4 cells/well), in medium supplemented with Dec-RVKR-CMK dissolved in methanol, to a final concentration of 0, 1, 10, 50 or 100 μM. After 18 hours incubation (37° C., 10% CO2 in an humidified incubator), conditioned cell culture media were removed and clarified by centrifugation (5 minutes, 250×g, 4° C.). VEGF-D species were immunoprecipitated from conditioned media of 293EBNA VEGF-DΔC cells by addition of M2-agarose beads (Sigma-Aldrich), that bind the FLAG epitope attached to the carboxyl-terminus of the VHD, and from conditioned media of 293EBNA VEGF-DΔN cells by addition of A2 antiserum, that binds to epitopes within the VHD (Stacker et al, J. Biol. Chem. 274 32127-32136, 1999), followed by incubation with protein-A sepharose beads. Beads and bound proteins were recovered by centrifugation (5 minutes, 250×g, 4° C.) and washed twice with Tris-buffered saline (TBS; 50 mM Tris-Cl, 150 mM NaCl, pH 8.0). The precipitated VEGF-D species were then analysed by reducing SDS-PAGE and Western blotting using a biotinylated antibody against the VHD of human VEGF-D (R&D Systems), and Streptavidin-horse radish peroxidase conjugate (Zymed).

## Decanoyl-Arg-Val-Lys-Arg-chloromethylketone (Decanoyl-RVKR-CH2Cl) [Dec-RVKR-CMK]
  proteolytic cleavage of the N-terminal propeptide from the VHD, at both Major and Minor cleavage sites: completely abrogated
  band representing mature VHD from VEGF-DΔC: reduced in abundance in a dose dependent manner
100 μM
  proteolytic processing of VEGF-DΔC: completely blocked
Listed as dec-RVKR-CMK
  band representing mature VHD from VEGF-DΔC: blocked each of these processing events in a dose-dependent fashion
